Tested on: HCV 1b genotype replicon
Experiment: HCV genotype-1b replicon assay (qRT-PCR or luciferase)
Type: cell-based
Conditions: Hepatitis C virus, HCV 1b replicon cell lines (SGR 11-7 or Huh-luc/neo-ET), a/b entries tested as mixture of the two compounds, read-out: Genotype-1b replicon EC50 Range
Description: HCV replicon cell lines (kindly provided by R. Bartenschlager) isolated from colonies as described by Lohman et. al. (Lohman et al. (1999) Science 285: 110-113, expressly incorporated by reference in its entirety) and used for all experiments. The HCV replicon has the nucleic acid sequence set forth in EMBL Accession No.: AJ242651, the coding sequence of which is from nucleotides 1801 to 8406.
The coding sequence of the published HCV replicon was synthesized and subsequently assembled in a modified plasmid pBR322 (Promega, Madison, Wis.) using standard molecular biology techniques. […]
EC50 values of single agent compounds and combinations were determined by HCV RNA detection using quantitative RT-PCR, according to the manufacturer's instructions, with a TAQMAN® One-Step RT-PCR Master Mix Reagents Kit (Cat# AB 4309169, Applied Biosystems) on an ABI Model 7500 thermocycler. The TaqMan primers used for detecting and quantifying HCV RNA were obtained from Integrated DNA Technologies. HCV RNA was normalized to GAPDH RNA levels in drug-treated cells, which was detected and quantified using the Human GAPDH Endogenous Control Mix (Applied Biosystems, AB 4310884E). […] Chemical agent cytotoxicity was evaluated using an MTS assay according to the manufacturer's directions (Promega). […]

SMILES | EC50 [nM]
COC(=O)N[C@H](C(=O)N1CCC(c2nc(-c3ccc(-c4ccc(-c5c[nH]c([C@@H]6CCCN6C(=O)[C@@H](NC(=O)OC)C(C)C)n5)cc4)cc3)c[nH]2)C1)C(C)C (some centres unmarked) [Example 345] | < 1
COC(=O)N[C@H](C(=O)N1CCC(c2nc3cc(-c4ccc(-c5c[nH]c([C@@H]6CCCN6C(=O)[C@@H](NC(=O)OC)C(C)C)n5)cc4)ccc3[nH]2)C1)C(C)C (some centres unmarked) [Example 343] | 1 to 10

Source: patent publication US8927709B2, “Hepatitis C virus inhibitors” (Enanta Pharmaceuticals, Inc., priority 2009, dated 2015)
